# Results as given in US6924252B1, “Weed control” (Aventis Agriculture Limited, priority 1999, dated 2005).
# How the values were obtained:
# Type in all cases: in vivo
# Setaria viridis [1] = assay: Glasshouse pot test, soil surface application, visual % reduction (Example 1); details: 14 DAT
# Description: (§1) 7×7 cm^2 pots were filled with a non-sterile loam soil. Weed seeds (Amaranthus retroflexus, Echinochloa crus galli and Setaria viridis) were placed in three separate shallow wells with a maize seed (Pioneer 3394) inserted to a depth of 4 cm in between in each pot and the seeds lightly covered with soil. A 1 ml solution of technical isoxaflutole, suitably diluted to give a dose equivalent to 6.25, 12.5, 25, 50 and 100 g/ha in acetonitrile, was pipetted evenly on the soil surface of pots (replicated 10 times), according to the following regime. On day 1, a set of 5 pots were treated with 5 dose rates (6.25-100 g/ha) and set aside in the glasshouse. At the same time, on day 1 a second set of 4 pots were with 4 dose rates (treatment A. 6.25-50 g/ha) along with a third set of 3 pots treated with 3 dose rates (treatment B: 6.25-25 g/ha). On day 2 each of the second and third pots were treated again the pots receiving identical treatments A and B and second set of pots set aside in the glasshouse. On day 3 each of the third set of pots were treated again, the pots receiving identical treatment B. On day 4 each of the third set of pots were treated, the pots receiving identical treatment B and the pots set aside in the glasshouse. The pots were maintained in a glasshouse, with overhead watering (3×daily) and supplementary lighting. Visual assessment of % reduction, compared to untreated control plants was recorded 14 days after treatment. The results (average of 10 replicates) arm shown on Table 1, where the dosing regime refers to the number of daily applications followed by the dose of compound on each day.
# Echinochloa crus galli = assay: as above; details: 14 DAT
# Description: as §1
# Amaranthus retroflexus [2] = assay: as above; details: 14 DAT
# Description: as §1
# Setaria viridis [3] = assay: Sequential soil surface application on plots (Example 5); details: 14 DAT
# Text: (§2) Maize is sown and grown up in an area where weeds and weed seedlings are present. The weeds are Amaranthus retroflexus, Echinochloa crus-galli and Setaria viridis. Solutions of isoxazole in acetonitrile were applied directly to the soil surface at dose rates of 100, 50 and 25 g/ha to plots A, B and C respectively. 1 DAT dose rates of 50 and 25 g/ha were applied to plots B and C respectively, 2 and 3 DAT a dose rate of 25 g/ha was applied to plot C.
# (§3) Activity of the isoxazole on maize and weed species was observed 14 DAT.
# Maize [4] = assay: as above; details: 14 DAT
# Text: as §2, §3
# Echinochloa crus-galli = assay: as above; details: 14 DAT
# Text: as §2, §3
# Amaranthus retroflexus [5] = assay: as above; details: 14 DAT
# Text: as §2, §3
# Maize [6] = assay: Activity on crop after spraying on sown maize (Example 3); details: 105 g/ha, observed after 3 weeks
# Text: (§4) Maize is sown and then grown up in area where weeds and weed seeds are present. The weeds are a selection from: Alopecurus myosuroides, Avena fatua, Digitaria sanguinalis, Echinochloa crus-galli, Eleusine indica, Lolium multiflorum, Setaria viridis, Sorghum halepense, Cyperus esculentus, Cyperus iria, Cyperus rotundus, Eleocharis acicularis, Abutilon theophrasti, Amaranthus retroflexus, Bidens pilosa, Chenopodium album, Galium aparine, Ipomgoea purpurea, Lamium purpureum, Matricaria inodora, Sesbania exalta, Sinapis arvensis, Solanum nigrum, Stellaria media, Veronica hederifolia, Veronica Persia, Viola arvensis and Xanthium strumarium.
# After one week sowing the maize, isoxazole is sprayed as an encapsulated formulation as hereinbefore described at a rate of 105 g/ha of herbicidally active compound, the weight ratio of isoxazole: copolyester being 1:10. The amounts of isoxazole of formula (I) and DKN were measured after 4 days in a 5 cm deep soil core around the seed or seedling.
# The activity of the isoxazole on the crop and weeds was observed after 3 weeks, and found to be equal to 2% and 95% respectively.
# weeds = assay: Activity on weeds after spraying on sown maize (Example 3); details: 105 g/ha, observed after 3 weeks
# Text: as §4, with “[…],” for “exalta,”, “[…],” for “Persia,”, “strumarium. […] The amounts of isoxazole of formula (I) and DKN were measured after 4 days in a 5 cm deep soil core around the seed or seedling. The weight ratio of isoxazole: […]” for “strumarium.”
# [7] = dosing regime 2 × 6.25 g/ha (daily applications × dose)
structure (smiles),measurement,setting,value
"CS(=O)(=O)c1cc(C(F)(F)F)ccc1C(=O)c1cnoc1C1CC1 [isoxaflutole, 5-cyclopropyl-4-(2-methylsulphonyl-4-trifluoromethylbenzoyl)isoxazole]",% Damage Setvi,Setaria viridis [1]; dosing regime 1 × 12.5 g/ha,0%
same,% Damage Setvi,Setaria viridis [1]; dosing regime 1 × 25 g/ha,10%
same,% Damage Setvi,Setaria viridis [1]; dosing regime 1 × 50 g/ha,24%
same,% Damage Setvi,Setaria viridis [1]; dosing regime 1 × 100 g/ha,59%
same,% Damage Setvi,Setaria viridis [1]; [7],18%
same,% Damage Setvi,Setaria viridis [1]; dosing regime 2 × 12.5 g/ha,42%
same,% Damage Setvi,Setaria viridis [1]; dosing regime 2 × 25 g/ha,44%
same,% Damage Setvi,Setaria viridis [1]; dosing regime 2 × 50 g/ha,66%
same,% Damage Setvi,Setaria viridis [1]; dosing regime 4 × 6.25 g/ha,75%
same,% Damage Setvi,Setaria viridis [1]; dosing regime 4 × 12.5 g/ha,91%
same,% Damage Setvi,Setaria viridis [1]; dosing regime 4 × 25 g/ha,77%
same,% Damage Echcg,Echinochloa crus galli; dosing regime 1 × 12.5 g/ha,0%
same,% Damage Echcg,Echinochloa crus galli; dosing regime 1 × 25 g/ha,32%
same,% Damage Echcg,Echinochloa crus galli; dosing regime 1 × 50 g/ha,84%
same,% Damage Echcg,Echinochloa crus galli; dosing regime 1 × 100 g/ha,94%
same,% Damage Echcg,Echinochloa crus galli; [7],18%
same,% Damage Echcg,Echinochloa crus galli; dosing regime 2 × 12.5 g/ha,68%
same,% Damage Echcg,Echinochloa crus galli; dosing regime 2 × 25 g/ha,70%
same,% Damage Echcg,Echinochloa crus galli; dosing regime 2 × 50 g/ha,96%
same,% Damage Echcg,Echinochloa crus galli; dosing regime 4 × 6.25 g/ha,97%
same,% Damage Echcg,Echinochloa crus galli; dosing regime 4 × 12.5 g/ha,100%
same,% Damage Echcg,Echinochloa crus galli; dosing regime 4 × 25 g/ha,100%
same,% Damage Amare,Amaranthus retroflexus [2]; dosing regime 1 × 12.5 g/ha,0%
same,% Damage Amare,Amaranthus retroflexus [2]; dosing regime 1 × 25 g/ha,8%
same,% Damage Amare,Amaranthus retroflexus [2]; dosing regime 1 × 50 g/ha,50%
same,% Damage Amare,Amaranthus retroflexus [2]; dosing regime 1 × 100 g/ha,79%
same,% Damage Amare,Amaranthus retroflexus [2]; [7],34%
same,% Damage Amare,Amaranthus retroflexus [2]; dosing regime 2 × 12.5 g/ha,46%
same,% Damage Amare,Amaranthus retroflexus [2]; dosing regime 2 × 25 g/ha,42%
same,% Damage Amare,Amaranthus retroflexus [2]; dosing regime 2 × 50 g/ha,78%
same,% Damage Amare,Amaranthus retroflexus [2]; dosing regime 4 × 6.25 g/ha,80%
same,% Damage Amare,Amaranthus retroflexus [2]; dosing regime 4 × 12.5 g/ha,79%
same,% Damage Amare,Amaranthus retroflexus [2]; dosing regime 4 × 25 g/ha,90%
CS(=O)(=O)c1cc(C(F)(F)F)ccc1C(=O)c1cnoc1C1CC1 [isoxazole],Activity SETVI,Setaria viridis [3]; dosing regime 1 × 100 g/ha,59
same,Activity SETVI,Setaria viridis [3]; dosing regime 2 × 50 g/ha,66
same,Activity SETVI,Setaria viridis [3]; dosing regime 4 × 25 g/ha,77
same,Activity Maize,Maize [4]; dosing regime 1 × 100 g/ha,8
same,Activity Maize,Maize [4]; dosing regime 2 × 50 g/ha,10
same,Activity Maize,Maize [4]; dosing regime 4 × 25 g/ha,6
same,Activity ECHCG,Echinochloa crus-galli; dosing regime 1 × 100 g/ha,94
same,Activity ECHCG,Echinochloa crus-galli; dosing regime 2 × 50 g/ha,96
same,Activity ECHCG,Echinochloa crus-galli; dosing regime 4 × 25 g/ha,100
same,Activity AMARE,Amaranthus retroflexus [5]; dosing regime 1 × 100 g/ha,79
same,Activity AMARE,Amaranthus retroflexus [5]; dosing regime 2 × 50 g/ha,78
same,Activity AMARE,Amaranthus retroflexus [5]; dosing regime 4 × 25 g/ha,90
same,activity of the isoxazole on the crop,Maize [6],15%
same,activity of the isoxazole on the weeds,weeds,95%
